Assay results as given in US10517889B2, “Modulators of SMAD7 expression” (Ionis Pharmaceuticals, Inc., priority 2017, dated 2019).
Strand notation (5' to 3'): a small letter for the sugar, then the base; units joined by * are phosphorothioate-linked, units joined directly phosphodiester-linked; [ ] holds rarer units or linkages, { } end groups; capitals alone tell only the bases. k = constrained ethyl (cEt); [5mC] = 5-methylcytosine; d = 2'-deoxy (DNA)

The substances below were run on human SMAD7 mRNA (assay: Antisense inhibition of human SMAD7 mRNA expression in Hep3B cells by 3-10-3 cEt gapmers, 10,000 nM, electroporation (Example 2)). Settings: Hep3B cells, 10,000 nM antisense oligonucleotide, electroporation, approximately 24 hours, RT-PCR primer probe set RTS5062, relative to untreated control cells.
Type: cell-based
Outline: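 Percent inhibition of SMAD7 mRNA, relative to untreated cells, after ~24 h exposure of electroporated Hep3B cells to 10,000 nM cEt gapmer; levels by qRT-PCR, corrected for total RNA.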

Row | Substance | % Inhibition
1 | 799899 (antisense kA*kA*kG*dT*d[5mC]*dT*d[5mC]*dT*dT*dA*d[5mC]*d[5mC]*dT*k[5mC]*kA*k[5mC]) [compound 799899] | 33%
2 | 799840 (antisense kA*kG*kG*dG*dA*dA*dG*dT*dT*dA*dG*dT*dG*kT*kT*kT) [compound 799840] | 22%
3 | 798822 (kG*kT*kA*dG*dA*dG*d[5mC]*d[5mC]*dT*d[5mC]*d[5mC]*d[5mC]*d[5mC]*kA*k[5mC]*kT; antisense) [compound 798822] | 56%
4 | 798860 (kT*kG*kG*d[5mC]*dG*dG*dA*d[5mC]*dT*dT*dG*dA*dT*kG*kA*kA; antisense) [compound 798860] | 22%
5 | 799875 (kG*kT*kG*d[5mC]*dA*dG*dA*d[5mC]*dT*dG*dG*dA*dA*kA*kA*kG; antisense) [compound 799875] | 41%

Same assay, conditions: Hep3B cells, electroporation with 10,000 nM antisense oligonucleotide, approximately 24 hours, RTS5062, percent inhibition of SMAD7 mRNA relative to untreated control cells

Row | Substance | % Inhibition
6 | 799768 (k[5mC]*kA*k[5mC]*d[5mC]*dA*dA*d[5mC]*d[5mC]*dT*d[5mC]*dT*dG*dT*kG*kG*kG; antisense) [compound 799768] | 0%
7 | 799532 (kG*k[5mC]*kA*dG*dA*dA*dG*dG*d[5mC]*d[5mC]*dA*d[5mC]*d[5mC]*k[5mC]*k[5mC]*k[5mC]; antisense) [compound 799532] | 21%
8 | 799821 (antisense k[5mC]*k[5mC]*k[5mC]*d[5mC]*dA*dG*dA*dA*dA*dA*d[5mC]*dA*dG*k[5mC]*k[5mC]*k[5mC]) [compound 799821] | 17%
9 | 799643 (kG*kT*kG*dA*dT*d[5mC]*d[5mC]*d[5mC]*d[5mC]*dG*dG*dA*dA*kA*kG*k[5mC]; antisense) [compound 799643] | 26%
10 | 799767 (kT*k[5mC]*kT*dG*dT*dT*dT*dG*dG*dA*d[5mC]*dA*dA*kG*kT*kT; antisense) [compound 799767] | 47%

Same assay, conditions: Hep3B cells, electroporation with 10,000 nM antisense oligonucleotide, approximately 24 hours, SMAD7 mRNA by RT-PCR (RTS5062), relative to untreated control cells

Row | Substance | % Inhibition
11 | 798888 (kA*kA*kA*dG*d[5mC]*dT*dG*dA*dT*d[5mC]*dT*dG*d[5mC]*kA*k[5mC]*kG; antisense) [compound 798888] | 40%
12 | 830124 (antisense k[5mC]*k[5mC]*kG*dA*dG*dG*d[5mC]*dA*d[5mC]*d[5mC]*dA*d[5mC]*dA*kT*kT*kT) [compound 830124] | 27%
13 | 830071 (kT*k[5mC]*kA*dA*dA*dG*dG*dT*dA*dA*dG*d[5mC]*d[5mC]*kA*kG*k[5mC]; antisense) [compound 830071] | 45%
14 | 799865 (kG*kG*kG*dA*d[5mC]*dA*dG*dA*d[5mC]*dT*dG*dT*d[5mC]*k[5mC]*k[5mC]*k[5mC]; antisense) [compound 799865] | 0%
15 | 830149 (antisense kA*kG*kG*dA*d[5mC]*dT*dG*dG*dT*d[5mC]*dT*dT*d[5mC]*kA*k[5mC]*k[5mC]) [compound 830149] | 47%
16 | 830173 (antisense kA*kG*kA*dG*dG*dT*dG*dT*dT*dT*d[5mC]*d[5mC]*dA*kA*kG*kG) [compound 830173] | 48%
17 | 799983 (k[5mC]*kA*kT*d[5mC]*dA*d[5mC]*d[5mC]*dA*d[5mC]*dG*d[5mC]*d[5mC]*dT*k[5mC]*kG*k[5mC]; antisense) [compound 799983] | 15%
18 | 830171 (antisense kT*kG*k[5mC]*dT*d[5mC]*dT*dG*dT*dT*dT*dG*dG*dA*k[5mC]*kA*kA) [compound 830171] | 26%
19 | 830172 (antisense k[5mC]*kT*kG*d[5mC]*dT*d[5mC]*dT*dG*dT*dT*dT*dG*dG*kA*k[5mC]*kA) [compound 830172] | 27%
20 | 830123 (antisense kG*kG*k[5mC]*dA*d[5mC]*d[5mC]*dA*d[5mC]*dA*dT*dT*dT*dT*k[5mC]*kA*k[5mC]) [compound 830123] | 44%
21 | 799370 (antisense kG*kG*k[5mC]*dA*d[5mC]*dT*d[5mC]*dA*d[5mC]*dT*dA*dA*dG*kT*k[5mC]*kT) [compound 799370] | 13%
22 | 798681 (antisense kG*kA*kA*d[5mC]*dA*dT*dG*dA*d[5mC]*d[5mC]*dT*d[5mC]*d[5mC]*kG*k[5mC]*kA) [compound 798681] | 29%
23 | 799885 (k[5mC]*k[5mC]*k[5mC]*d[5mC]*dA*d[5mC]*dA*dG*dA*dT*d[5mC]*d[5mC]*dA*kA*k[5mC]*kT; antisense) [compound 799885] | 0%
24 | 772563 (antisense kG*kG*k[5mC]*d[5mC]*dA*d[5mC]*d[5mC]*dT*dG*dA*dA*d[5mC]*dA*k[5mC]*kT*kT) [compound 772563] | 0%
25 | 830088 (kG*kT*kT*dT*dT*dA*d[5mC]*dA*dG*dG*dA*dT*dA*k[5mC]*kA*k[5mC]; antisense) [compound 830088] | 52%
26 | 799390 (antisense k[5mC]*kA*kA*dA*dA*d[5mC]*dT*dT*dT*dT*dA*dA*dT*kT*kA*kG) [compound 799390] | 0%
27 | 830201 (antisense k[5mC]*kT*kG*dA*dA*dG*dG*d[5mC]*dT*dA*d[5mC]*dA*d[5mC]*k[5mC]*kA*kA) [compound 830201] | 37%
28 | 772557 (antisense kG*kT*k[5mC]*d[5mC]*dA*dG*dG*d[5mC]*dG*dG*d[5mC]*d[5mC]*dG*kG*kG*k[5mC]) [compound 772557] | 2%
29 | 799928 (antisense k[5mC]*kT*k[5mC]*d[5mC]*d[5mC]*dA*dA*dG*d[5mC]*d[5mC]*dT*dA*d[5mC]*kA*kT*kA) [compound 799928] | 7%

Same assay, conditions: Hep3B cells, electroporation with 10,000 nM antisense oligonucleotide, approximately 24 hours, primer probe set RTS5062, relative to untreated control cells

Row | Substance | % inhibition of SMAD7 mRNA expression | % Inhibition
30 | 798690 (antisense kG*kG*k[5mC]*dT*d[5mC]*d[5mC]*dT*d[5mC]*d[5mC]*dA*dG*dA*dG*kA*k[5mC]*kG) [compound 798690] | 29% | 
31 | 798961 (antisense kA*kA*kA*dA*d[5mC]*d[5mC]*d[5mC]*d[5mC]*d[5mC]*dA*dA*d[5mC]*dA*kA*kT*kT) [compound 798961] |  | 0%
32 | 799131 (antisense k[5mC]*kA*kT*dG*dT*d[5mC]*d[5mC]*d[5mC]*dT*d[5mC]*d[5mC]*d[5mC]*dA*kG*kG*kG) [compound 799131] | 6% | 
33 | 798789 (kG*kT*kA*dT*d[5mC]*dT*dG*dG*dA*dG*dT*dA*dA*kG*kG*kA; antisense) [compound 798789] | 44% | 
34 | 799423 (antisense kT*kA*k[5mC]*d[5mC]*dA*dG*dG*d[5mC]*d[5mC]*d[5mC]*d[5mC]*dA*dG*k[5mC]*k[5mC]*k[5mC]) [compound 799423] | 14% | 
35 | 798999 (antisense k[5mC]*k[5mC]*kG*d[5mC]*dA*d[5mC]*dA*d[5mC]*dT*d[5mC]*dA*d[5mC]*dA*k[5mC]*kT*k[5mC]) [compound 798999] |  | 17%
36 | 799359 (kT*kG*kT*dT*dA*dA*dA*dG*d[5mC]*dT*dG*dA*dG*k[5mC]*k[5mC]*k[5mC]; antisense) [compound 799359] | 22% | 
37 | 799436 (antisense kA*kG*k[5mC]*d[5mC]*dA*dT*dT*d[5mC]*d[5mC]*dT*d[5mC]*dA*dA*kA*k[5mC]*k[5mC]) [compound 799436] | 4% | 

Same assay, conditions: Hep3B cells, electroporation, 10,000 nM antisense oligonucleotide, approximately 24 hours, RTS5062, relative to untreated control cells

Row | Substance | % inhibition of SMAD7 mRNA expression
38 | 799285 (antisense kG*kG*k[5mC]*dT*dT*d[5mC]*dA*d[5mC]*dT*dG*d[5mC]*d[5mC]*d[5mC]*kA*kT*k[5mC]) [compound 799285] | 36%
39 | 799700 (antisense k[5mC]*kA*kT*dG*dA*d[5mC]*dA*dG*d[5mC]*dA*dA*dA*dG*k[5mC]*kA*kA) [compound 799700] | 49%
40 | 799656 (antisense k[5mC]*kT*kA*dA*d[5mC]*dT*dG*dG*dG*d[5mC]*dA*dG*dG*kT*k[5mC]*k[5mC]) [compound 799656] | 60%

Same assay, conditions: SMAD7 mRNA, Hep3B cells, 10,000 nM antisense oligonucleotide, electroporation, approximately 24 hours, primer probe set RTS5062, relative to untreated control cells

Row | Substance | % Inhibition
41 | 790498 (k[5mC]*kT*k[5mC]*dT*dA*dG*dT*dT*d[5mC]*dG*d[5mC]*dA*dG*kA*kG*kT; antisense) [compound 790498] | 11%
42 | 829746 (antisense k[5mC]*k[5mC]*kG*dG*dG*d[5mC]*dG*d[5mC]*dA*d[5mC]*dG*dG*d[5mC]*kT*k[5mC]*k[5mC]) [compound 829746] | 46%
43 | 790611 (kG*k[5mC]*kT*dT*dA*dT*dG*dT*dT*dA*dA*dA*dG*kT*k[5mC]*kT; antisense) [compound 790611] | 59%

Same assay, conditions: SMAD7 mRNA, Hep3B cells, electroporation with 10,000 nM antisense oligonucleotide, approximately 24 hours, primer probe set RTS5062, relative to untreated control cells

Row | Substance | % Inhibition
44 | 829850 (antisense kT*kT*kG*dT*dT*dG*dT*d[5mC]*d[5mC]*dG*dA*dA*dT*kT*kG*kA) [compound 829850] | 36%
45 | 829955 (k[5mC]*kT*kT*dG*dT*d[5mC]*dA*d[5mC]*d[5mC]*d[5mC]*dG*dT*d[5mC]*kT*kG*kG; antisense) [compound 829955] | 52%
46 | 829852 (antisense kT*k[5mC]*kT*dT*dG*dT*dT*dG*dT*d[5mC]*d[5mC]*dG*dA*kA*kT*kT) [compound 829852] | 33%
47 | 829999 (k[5mC]*kT*kG*dT*dT*dT*dG*dT*d[5mC]*dT*dT*dA*dG*k[5mC]*kT*kG; antisense) [compound 829999] | 46%
48 | 829840 (kG*kG*kA*d[5mC]*dA*d[5mC]*dA*dG*dT*dA*dG*dA*dG*k[5mC]*k[5mC]*kT; antisense) [compound 829840] | 0%
49 | 829901 (antisense kA*kG*k[5mC]*dA*d[5mC]*dG*dG*dG*d[5mC]*dA*dG*d[5mC]*dT*kG*k[5mC]*kT) [compound 829901] | 10%
